Literature values in patent publication US20130079416A1 (BOIRON, priority 2010, published 2013).
Read-outs that look alike come from different tables or passages of the source.

What was measured:
[1] = rat, oral, multiple doses; methemoglobinemia-carboxyhaemoglobin, changes in blood cell and erythrocyte count
[2] = rats, long time and very high doses, alone or in combination with phenazone (Johansson, 1981)
[3] = human

Structure (SMILES): CCOc1ccc(NC(C)=O)cc1 [phenacetin, N-(4-ethoxyphenyl)acetamide]
- Lowest toxic dose (TDL0) [1]: 10 mg/kg/ mg/kg/4 weeks (intermittent)
- Incidence of renal tumours [2]: slightly increases the incidence of renal tumours
- Lowest toxic dose (TDL0) ([3]; acute, route not indicated): 74 mg/kg
- Lowest toxic dose (TDL0) ([3]; oral, multiple doses, tumorigenic-carcinogenic according to RTECS criteria, renal tumours): 80 mg/kg/63 mg/kg/63 years (intermittent)
